According to patent publication US20220323406A1, “METHODS AND COMPOSITIONS FOR DIFFERENTIATING STEM CELLS” (Massachusetts Institute of Technology, priority 2019, published 2022):

Assays:
[1] = Animal study: oral gavage every other day for two weeks, body weight; type: in vivo, mouse
Procedure: Following a similar protocol as previously reported for SINE treatment in the context of cancer (Arango et al., 2017; Azmi et al., 2013; Hing et al., 2016; Zheng et al., 2014), KPT-330 was administered at a dose 10 mg/kg via oral gavage every other day over a two-week span in C57BL/6 wild-type mice, and body weight was monitored for any clear toxicity. […] Given animal weight loss on the standard chemotherapeutic dosage regimen, and additional evidence that sustained dosage of SINEs adversely impacts T cell populations (Tyler et al., 2017), Applicants sought to explore dosing regimens well below 10 mg/kg, to see if a pro-Paneth phenotype may exist below potential toxicities. […] Applicants tracked animal weight every other day, and at day 14 collected the proximal and distal thirds of the small intestine for histological quantification of Paneth, stem, and goblet populations (FIG. 26A). […] Paneth cells were counted within well preserved crypts, with at minimum 30 crypts quantified per animal (representative images FIG. 30C) and then averaged to get mean Paneth cells per crypt in distal and proximal thirds of the small intestine. […] Applicants additionally quantified the abundance of Olfm4+ stem cells as well as PAS+ goblet cells within the same animals to ascertain whether the effect of SINE treatment was restricted to the Paneth cell compartment (representative images FIG. 30D,E). […]

[2] = tested on: small intestine crypts (Paneth, stem, goblet cells); experiment: Animal study: histological quantification of Paneth, Olfm4+ stem and PAS+ goblet cells per crypt; type: in vivo, mouse; settings: every other day, day 14
Procedure: Following a similar protocol as previously reported for SINE treatment in the context of cancer (Arango et al., 2017; […] Zheng et al., 2014), KPT-330 was administered at a dose 10 mg/kg via oral gavage every other day over a two-week span in C57BL/6 wild-type mice, and body weight was monitored for any clear toxicity. […] Applicants tracked animal weight every other day, and at day 14 collected the proximal and distal thirds of the small intestine for histological quantification of Paneth, stem, and goblet populations (FIG. 26A). […] Samples were prepared for histology by the ‘swiss-roll’ technique, and following staining, were blinded and randomized before manual counting of well-preserved features. […] Applicants additionally quantified the abundance of Olfm4+ stem cells as well as PAS+ goblet cells within the same animals to ascertain whether the effect of SINE treatment was restricted to the Paneth cell compartment (representative images FIG. 30D,E). […] Animal study. 8-10 weeks old wild type C57BL/6NCrl male mice (#027) were purchased from Charles River. Mice were housed under 12 h light/dark cycle and provided food and water ad libitum. 0.01, 0.05, 0.2 or 10 mg/kg of KPT-330 were injected orally using a disposable gavage needle (Cadence Science, #9921) at 10 μL/g weight. KPT-330 was dissolved in DMSO initially and further diluted in sterile PBS containing Pluronic F-68 Non-ionic Surfactant (Gibco, #24040032) and Polyvinylpyrrolidone (PVP, Alfa Aesar, A14315, average M.W. 58,000); the final concentration of DMSO is 2%, Pluronic is 0.5%, and PVP is 0.5%. KPT-330 was administered every other day for two weeks, 7 injections in total (days 0, 2, 4, 6, 8, 10, 12), and mice were sacrificed at day 14. All animal studies are approved by the Committee on Animal Care (CAC) at Massachusetts Institute of Technology. Histology. The small intestine (SI) was collected from mice and divided into three parts. Only proximal and distal SI were kept in PBS, and medial SI was discarded. Each SI was opened longitudinally and washed in PBS. […] Fixed tissues were embedded in paraffin, and 4 μm sections were mounted on slides. For immunohistochemistry, slides were deparaffinized, antigen retrieved using heat-induced epitope retrieval at 97° C. for 20 min using citrate buffer pH 6, and probed with appropriate antibodies followed by DAB staining. For McManus Periodic Acid Schiff (PAS) reaction, slides were deparaffinized, oxidized in periodic acid, and stained with Schiff reagent (Poly Scientific, s272) followed by counterstaining with Harris Hematoxylin. Slides were scanned by Aperio Slide Scanner (Leica) and cells were counted on Aperio eSlide Manager. Slides were randomized before counting, and all cell types were counted in all well-preserved crypts along the longitudinal crypt-villus axis.

Structure (SMILES): O=C(/C=C\n1cnc(-c2cc(C(F)(F)F)cc(C(F)(F)F)c2)n1)NNc1cnccn1 [KPT-330]
- body weight ([1]; 10 mg/kg oral gavage every other day): significant weight loss
- body weight ([1]; 0.2, 0.05 and 0.01 mg/kg oral gavage every other day): no significant changes in animal weight at any dose
- Olfm4+ stem cells, distal small intestine ([2]; 0.01 mg/kg oral): significant increase in Olfm4+ stem cells
- Paneth cells per crypt, distal small intestine ([2]; 0.01 mg/kg oral): significant increases in Paneth abundance
- Paneth cells per crypt, proximal small intestine ([2]; 0.01 mg/kg oral): significant increases in Paneth abundance
- Paneth cells per crypt, proximal small intestine ([2]; 0.2 mg/kg oral): significant increases in Paneth abundance
- PAS+ goblet cell population ([2]; 0.01-0.2 mg/kg oral): did not overserve any significant changes
